Data reported in patent US6090945A, “Tetrahydro-beta-carbolines” (Eli Lilly and Company, priority 1998, dated 2000).
Structures can show the parent of a compound that is named as a salt. Where two headings read alike, the source gives them in different places.

Key:
5-HT2 receptor = 5-HT2 receptor (Rattus norvegicus, UniProt P14842); assay: 5-HT2 radioligand binding assay ([3H]ketanserin displacement); set-up: species or system rat (Sprague-Dawley cerebral cortex)
5-HT1c receptor [1] = assay: 5-HT1c radioligand binding assay ([3H]mesulergine displacement); conditions: versus 5-HT2, as shown by Table II
Protocol: I. Assay for 5-HT1c Affinity
(§1) Beef brain was removed immediately after slaughter, and choroid plexus were dissected over ice. […] Tissues were homogenized in 9 volumes of 0.32 mol/L sucrose and centrifuged at 1,000×g for 10 minutes. The supernatant was centrifuged at 17,000×g for 20 minutes. The pellet was suspended in 100 volumes of 50 mM Tris-HCl (pH7.4), incubated at 37° C. for 10 minutes and centrifuged at 50,000×g for 10 minutes, and the process was repeated three times. The final pellets were frozen at -70° C. and used within 2 weeks. Pellets were rehydrated with physiological buffer prior to use.
(§2) The reactions were terminated by rapid filtration, (Brandel Cell Harvestor), through Whatman GF/B glass filters that had been presoaked in Tris buffer pH 7.4. The filters were then washed 2 times with 5 ml of ice cold Tris buffer pH 7.4. Washed filters were placed in scintillation vials and 10 ml RedySolv, (Brandel), was added and samples were counted in a Searle D-300 beta counter. Means and standard error statistics were calculated for triplicate experimental determinations in certain cases. Mean values were obtained from three or more separate determinations. The incubation time for the reaction mixture was 15 minutes at 37° C.

5-HT1c receptor [2] = biological target: T1, 5-HT1c receptor (Bos taurus, UniProt A0AAA9SBU1); assay: as above; conditions: read-out: 5HT1C IC50 (binding displacement); choroid plexus; tritiated mesulergine 2.0 nM; 37° C., 15 minutes
T1 sequence (A0AAA9SBU1 33-457): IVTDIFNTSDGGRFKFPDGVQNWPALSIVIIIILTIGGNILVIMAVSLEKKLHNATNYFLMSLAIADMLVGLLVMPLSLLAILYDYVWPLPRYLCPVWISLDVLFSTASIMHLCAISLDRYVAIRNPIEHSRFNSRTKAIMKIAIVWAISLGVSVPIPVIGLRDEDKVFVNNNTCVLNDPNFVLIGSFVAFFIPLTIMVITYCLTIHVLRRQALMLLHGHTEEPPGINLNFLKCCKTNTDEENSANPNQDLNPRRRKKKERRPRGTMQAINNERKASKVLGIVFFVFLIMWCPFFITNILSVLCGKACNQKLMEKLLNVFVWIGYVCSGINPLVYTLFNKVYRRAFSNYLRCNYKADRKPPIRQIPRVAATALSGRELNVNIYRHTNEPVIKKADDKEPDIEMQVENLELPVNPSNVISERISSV
Protocol: I. Assay for 5-HT1c Affinity
as §1, §2

[3] = biological target: T2, cloned rat 5-HT2B receptor (Rattus norvegicus, UniProt P30994); assay: 5-HT2B radioligand binding ([3H]5-HT), cloned rat receptor; conditions: [3H]5-HT 2 nM, read-out: Rat 2B binding (IC50 converted to Ki)
T2 construct: expressed in transfected cells
Protocol: RAdioligand Binding Studies for 5-HT2 B:
Membrane preparation from transformed cells. Suspension cells expressing the cloned rat 5-HT2B receptor were harvested by centrifugation at 200×g for 15 min at 4° C. […] Membranes for the binding assays were prepared by vortexing the pellet in 50 mM Tris-HCl, pH 7.4 (0.5×10^9 cells/30 ml). The tissue suspension was then centrifuged at 39,800×g for 10 min at 4° C. This procedure was repeated for a total of three washes, with a 10 minute incubation at 37° C. between the first and second wash.
[^3 H]5-HT binding studies. Binding assays were automated using a Biomek 1000 (Beckman Instruments, Fullerton, Calif.) and were performed in triplicate in 0.8 ml total volume. Membrane suspension, 200 μl, (0.04-0.27 mg protein) and 200 μl of drug dilution in water were added to 400 μl of 67 mM Tris-HCl, pH 7.4, containing [^3 H]5-HT, pargyline, CaCl2, and L-ascorbic acid. Final concentrations of pargyline, CaCl2 and L-ascorbic acid were 10 μM, 3 mM and 0.1%, respectively. […] The amount of [^3 H]5-HT trapped on the filters was determined by liquid scintillation spectrometry (Ready Protein and Beckman LS 6000IC, Beckman Instruments, Fullerton, Calif.). For the saturation experiments, actual free radioligand concentrations were determined by sampling the supernatant of parallel saturation experiments in which bound radioactivity had been separated by centrifugation. […] Protein was determined by the method of Bradford, using bovine serum albumin as the standard.
The Kd and Bmax values from the saturation assays were determined for best fit to a one-site or a two-site binding model using a partial F-test. […] The IC50 values from the competition assays, the binding parameters for the IP3 standard curve and the EC50 and Emax values from the IP3 assays were determined by nonlinear regression analysis of four parameter logistic equations (Systat, Systat Inc, Evanston, Ill.). […]

[4] = rat cerebral cortex, tritiated ketanserin 1 nM, 37° C., read-out: 5HT2 IC50 (binding displacement)

5-HT2 receptor, sequence (P14842 whole entry): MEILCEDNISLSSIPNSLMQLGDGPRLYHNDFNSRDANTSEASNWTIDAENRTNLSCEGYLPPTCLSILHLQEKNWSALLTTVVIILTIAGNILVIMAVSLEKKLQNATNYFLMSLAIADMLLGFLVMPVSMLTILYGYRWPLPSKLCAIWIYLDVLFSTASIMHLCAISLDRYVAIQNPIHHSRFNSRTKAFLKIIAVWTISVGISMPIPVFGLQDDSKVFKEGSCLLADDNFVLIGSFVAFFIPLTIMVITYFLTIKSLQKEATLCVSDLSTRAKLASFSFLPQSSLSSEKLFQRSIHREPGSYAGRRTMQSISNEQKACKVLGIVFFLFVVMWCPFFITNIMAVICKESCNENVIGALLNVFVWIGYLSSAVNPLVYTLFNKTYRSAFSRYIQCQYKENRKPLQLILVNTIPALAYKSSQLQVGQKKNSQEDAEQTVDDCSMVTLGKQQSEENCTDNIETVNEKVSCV
T2 sequence (P30994 whole entry): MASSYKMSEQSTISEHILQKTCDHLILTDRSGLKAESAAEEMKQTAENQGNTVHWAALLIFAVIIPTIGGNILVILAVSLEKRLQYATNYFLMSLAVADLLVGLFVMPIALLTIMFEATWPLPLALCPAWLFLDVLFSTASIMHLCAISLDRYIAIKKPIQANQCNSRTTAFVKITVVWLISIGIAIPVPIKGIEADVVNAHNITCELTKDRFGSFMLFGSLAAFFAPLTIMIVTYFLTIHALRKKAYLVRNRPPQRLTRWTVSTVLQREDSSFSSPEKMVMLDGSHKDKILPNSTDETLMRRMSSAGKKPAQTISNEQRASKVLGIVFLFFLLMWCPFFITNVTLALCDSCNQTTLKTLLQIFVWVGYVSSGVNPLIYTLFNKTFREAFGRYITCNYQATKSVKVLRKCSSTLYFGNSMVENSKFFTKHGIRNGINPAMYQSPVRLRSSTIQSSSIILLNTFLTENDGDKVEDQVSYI

| Compound | IC50 (5-HT2 receptor; [4]) [nM] | 5-HT1c selectivity (low IC50 in 5-HT1c assay, higher IC50 in 5-HT2 assay) (5-HT1c receptor [1]) | IC50 (5-HT1c receptor [2]) [nM] | IC50 (5-HT2 receptor) [nM] | Ki [3] [nM] |
| --- | --- | --- | --- | --- | --- |
| COc1ccc(CC2NCCc3c2[nH]c2c(Br)cc(Br)cc32)cc1OC (centres unmarked) [Example 3, 6,8-dibromo-1-[(3,4-dimethoxyphenyl)methyl]-1,2,3,4-tetrahydro-9H-pyrido[3,4-b]indole] | 900 | particularly 5-HT1c selective | 29 | – | – |
| COc1ccc(CC2NCCc3c2[nH]c2c(Br)cc(C)cc32)cc1OC.Cl (centres unmarked) [Example 4, 6-methyl-8-bromo-1-[(3,4-dimethoxyphenyl)-methyl]-1,2,3,4-tetrahydro-9H-pyrido[3,4-b]indole hydrochloride] | – | particularly 5-HT1c selective | 20 | 132 | – |
| COc1ccc(CC2NCCc3c2[nH]c2c(F)cc(F)cc32)cc1OC (centres unmarked) [Example 6, 6,8-difluoro-1-[(3,4-dimethoxyphenyl)-methyl]-1,2,3,4-tetrahydro-9H-pyrido[3,4-b]indole] | 168 | particularly 5-HT1c selective | 43 | – | – |
| COc1ccc(CC2NCCc3c2[nH]c2c(Br)c(C)ccc32)cc1OC.Cl (centres unmarked) [Example 7, 7-methyl-8-bromo-1-[(3,4-dimethoxyphenyl)-methyl]-1,2,3,4-tetrahydro-9H-pyrido[3,4-b]indole hydrochloride] | – | particularly 5-HT1c selective | 5.1 | > 100 | – |
| COc1ccc(CC2NCCc3c2[nH]c2c3ccc3ccccc32)cc1OC (centres unmarked) [Example 10, 7,8,9,10-tetrahydro-10-[(3,4-dimethoxyphenyl)methyl]-11H-benzo [g]pyrido[3,4-b]indole] | 219 | particularly 5-HT1c selective | 43 | – | – |
| COc1ccc(CC2NCCc3c2[nH]c2ccc(C(C)C)cc32)cc1OC (centres unmarked) [Example 13, 6-(1-methylethyl)-1,2,3,4-tetrahydro-1-[(3,4-dimethoxyphenyl)methyl]-9H-pyrido[3,4b]indole] | 433 | particularly 5-HT1c selective | 48 | – | – |
| COc1ccc(CC2NCCc3c2[nH]c2cc(C)cc(C)c32)cc1OC (centres unmarked) [Example 15, 5,7-dimethyl-1,2,3,4-tetrahydro-1-[(3,4-dimethoxyphenyl)methyl]-9H-pyrido[3,4b]indole hydrochloride] | > 100 | particularly 5-HT1c selective | 14 | – | – |
| COc1ccc(CC2NCCc3c2[nH]c2cc(C)c(C)cc32)cc1OC (centres unmarked) [Example 16, 6,7-dimethyl-1,2,3,4-tetrahydro-1-[(3,4-dimethoxyphenyl)methyl]-9H-pyrido[3,4b]indole] | 2110 | particularly 5-HT1c selective | 63 | – | – |
| CCc1ccc2[nH]c3c(c2c1)CCNC3Cc1ccc(OC)c(OC)c1 (centres unmarked) [Example 17, 6-ethyl-1,2,3,4-tetrahydro-1-[(3,4-dimethoxyphenyl)methyl]-9H-pyrido[3,4b]indole] | 286 | – | 73 | – | – |
| COc1ccc(CC2NCCc3c2[nH]c2ccc(Br)cc32)cc1OC (centres unmarked) [Example 18, 6-bromo-1,2,3,4-tetrahydro-1-[(3,4-dimethoxyphenyl)methyl]-9H-pyrido[3,4b]indole] | 287 | – | 119 | – | – |
| COc1ccc(CC2NCCc3c2[nH]c2c(C)c(C)ccc32)cc1OC (centres unmarked) [Example 19, 7,8-dimethyl-1,2,3,4-tetrahydro-1-[(3,4-dimethoxyphenyl)methyl]-9H-pyrido[3,4b]indole hydrochloride] | > 100 | – | 21 | – | – |
| COc1ccc(CC2NCCc3c2[nH]c2ccc(C)cc32)cc1OC (centres unmarked) [Example 20, 6-methyl-1,2,3,4-tetrahydro-1-[(3,4-dimethoxyphenyl)methyl]-9H-pyrido[3,4b]indole hydrochloride] | 129 | – | 100 | – | – |
| COc1cc(CC2NCCc3c2[nH]c2ccc(C)cc32)cc(OC)c1OC (centres unmarked) [Example 21, 6-methyl-1-[(3,4,5-trimethoxyphenyl)-methyl]-1,2,3,4-tetrahydro-9H-pyrido[3,4-b]indole hydrochloride] | – | – | 83 | 1080 | – |
| COc1ccc(CC2NCCc3c2[nH]c2ccc(C)cc32)c(OC)c1OC (centres unmarked) [Example 22, 6-methyl-1-[(2,3,4-trimethoxyphenyl)-methyl]-1,2,3,4-tetrahydro-9H-pyrido[3,4-b]indole hydrochloride] | – | – | 30 | 1420 | 5.39 |
| COc1ccc(CC2NCCc3c2[nH]c2ccc(C)cc32)c(OC)c1 (centres unmarked) [Example 24, 6-methyl-1-[(2,4-dimethoxyphenyl)methyl]-1,2,3,4-tetrahydro-9H-pyrido[3,4-b]indole hydrochloride] | – | – | 17 | 74 | – |
| COc1cc(CC2NCCc3c2[nH]c2ccc(C)cc32)cc([N+](=O)[O-])c1OC (centres unmarked) [Example 28, 6-methyl-1-[(3,4-dimethoxy-5-nitrophenyl)-methyl]-1,2,3,4-tetrahydro-9H-pyrido[3,4-b]indole hydrochloride] | – | – | 404 | 1000 | – |
| COc1cc(CC2NCCc3c2[nH]c2ccc(C)cc32)cc(I)c1OC (centres unmarked) [Example 29, 6-methyl-1-[(3-iodo-4,5-dimethoxy-phenyl)-methyl]-1,2,3,4-tetrahydro-9H-pyrido[3,4-b]indole] | 1010 | – | 257 | – | – |
| COc1cc(CC2NCCc3c2[nH]c2ccc(C)cc32)cc(N)c1OC (centres unmarked) [Example 30, 6-methyl-1-[(3,4-dimethoxy-5-amino-phenyl)-methyl]-1,2,3,4-tetrahydro-9H-pyrido[3,4-b]indole dihydrochloride] | – | – | 224 | 792 | – |
| CCCOc1ccc(CC2NCCc3c2[nH]c2ccc(C)cc32)cc1OC (centres unmarked) [Example 31, 6-methyl-1-[(3-methoxy-4-propoxyphenyl)-methyl]-1,2,3,4-tetrahydro-9H-pyrido[3,4-b]indole] | 385 | – | 107 | – | – |
| COc1ccc(CC2NCCc3c2[nH]c2ccc(C)cc32)cc1F (centres unmarked) [Example 34, 6-methyl-1-[(3-fluoro-4-methoxyphenyl)-methyl]-1,2,3,4-tetrahydro-9H-pyrido[3,4-b]indole hydrochloride] | – | – | 95 | 250 | – |
| Cc1ccc2[nH]c3c(c2c1)CCNC3Cc1ccc(C)c(C)c1 (centres unmarked) [Example 35, 6-methyl-1-[(3,4-dimethylphenyl)methyl]-1,2,3,4-tetrahydro-9H-pyrido[3,4-b]indole hydrochloride] | – | – | 61 | > 100 | – |
| COc1ccc(CC2NCCc3c2[nH]c2ccc(C)cc32)c(Cl)c1OC (centres unmarked) [Example 36, 6-methyl-1-[(2-chloro-3,4-dimethoxyphenyl)-methyl]-1,2,3,4-tetrahydro-9H-pyrido[3,4-b]indole hydrochloride] | – | – | 57 | 100 | – |
| COc1c(O)ccc(CC2NCCc3c2[nH]c2ccc(C)cc32)c1Cl (centres unmarked) [Example 37, 6-methyl-1-[(2-chloro-3-methoxy-4-hydroxyphenyl)methyl]-1,2,3,4-tetrahydro-9H-pyrido[3,4-b]-indole hydrochloride] | – | – | 29 | 100 | – |
| COc1ccc(CC2NCCc3c2[nH]c2ccc(C)c(F)c32)c(Cl)c1OC (centres unmarked) [Example 38, 5-fluoro-6-methyl-1-[(2-chloro-3,4-dimethoxyphenyl)methyl]-1,2,3,4-tetrahydro-9H-pyrido[3,4-b]indole hydrochloride] | – | – | 11 | > 100 | – |
| Cc1ccc2[nH]c3c(c2c1)CCNC3CC1CCCCC1 (centres unmarked) [Example 39, 6-methyl-1-(cyclohexylmethyl)-1,2,3,4-tetrahydro-9H-pyrido[3,4-b]indole hydrochloride] | – | – | 498 | 620 | – |
